Data published in PubChem BioAssay AID1996.
Converted amounts (≈) assume the structure as drawn.

Details: buffer; pH 7.4; 200.0 µM

First: COc1cccc(CC(=O)Nc2nc(-c3ccc(F)c(F)c3)cs2)c1
Second: O=C(NCC(O)c1ccc2ccccc2c1)c1c(F)cccc1F (stereo not given)
The solubility kinetic of the first is 84-fold lower: 0.5 µg/mL (≈ 1.39 µM) for the first, 41.9 µg/mL (≈ 128 µM) for the second.

`COc1ccc(NC(=O)CN(C)C(=O)C2(c3ccccc3)CCCC2)cc1` and `CN(CC(=O)NCCc1ccccc1)CC(=O)Nc1cccc(F)c1` cannot be ordered by solubility kinetic: greater than 55 µg/mL for the first, greater than 51.5 µg/mL for the second.

First: CC(=O)O.O=S(=O)(Cc1ccccc1)N1CCNCC1
Second: O=C(NCc1ccccc1)N1CCC(Cc2ccccc2)CC1
The solubility kinetic of the first is higher: 34.3 µg/mL for the first, less than 0.3 µg/mL for the second.

`C/C(=N\NC=O)c1ccncc1` and `Cc1ccc(NC(=O)c2cccnc2)c([N+](=O)[O-])c1` cannot be ordered by solubility kinetic: greater than 24.5 µg/mL for the first, greater than 38.6 µg/mL for the second.

First: COc1ccccc1NC(=O)Cn1nc(C)n2cccc2c1=O
Second: Cc1cc(NC(=O)CN2C(=O)NC(C)(c3ccccc3Cl)C2=O)no1 (stereo not given)
The solubility kinetic of the first is higher: greater than 46.8 µg/mL for the first, 28 µg/mL (≈ 77.2 µM) for the second.

Compared with `CC(=O)N1CCN(C(=O)COC(=O)/C=C/c2ccc(C(F)(F)F)cc2)CC1`, `O=C(NCC(=O)N1CCN(c2ccc([N+](=O)[O-])cc2)CC1)c1ccco1` is lower in solubility kinetic: greater than 57.7 µg/mL for the first, 11.4 µg/mL (≈ 31.8 µM) for the second.

Going from `COc1nc(NCCO)nc(Nc2cc(Cl)ccc2OC)n1` to `COc1cc(NC(=S)N(C)CCC#N)c(OC)cc1Cl`, the solubility kinetic rises from 2.5 µg/mL (≈ 7.67 µM) to 38.9 µg/mL (≈ 124 µM) (16-fold).

Compared with `Cc1ccc(C(=O)N=c2sccn2C)cc1C`, `Cc1cc(C)c(C(=O)Nc2cccc(F)c2)c(Cl)n1` is higher in solubility kinetic: 10 µg/mL (≈ 40.6 µM) for the first, greater than 41.8 µg/mL for the second.

First: CCOC(=O)CN1C(=O)NC2(CCCc3ccccc32)C1=O (stereo not given)
Second: O=C(CCN1C(=O)S/C(=C\c2ccccc2)C1=O)N1CCCCC1
The solubility kinetic of the first is higher: greater than 45.3 µg/mL for the first, 20.6 µg/mL (≈ 59.8 µM) for the second.

Going from `COc1ccc(CCNS(=O)(=O)c2ccc3c(c2)CCCC3)cc1OC` to `COc1ccc(N/C=C/C(=O)c2ccc(OC)c(OC)c2)cc1`, the solubility kinetic falls from 28.2 µg/mL (≈ 75.1 µM) to less than 0.7 µg/mL.

First: COc1cccc(CC(=O)NCC2(N3CCCCC3)CCCCC2)c1
Second: CC(=O)c1sc2nsc(SCCN3CCCCC3)c2c1N
The solubility kinetic of the first is higher: greater than 51.7 µg/mL for the first, 47.5 µg/mL (≈ 139 µM) for the second.

Compared with `CC(C(=O)NC(c1ccccc1)c1ccccc1)N1CCOCC1` (stereo not given), `S=C(Cc1ccc(-c2ccccc2)cc1)N1CCOCC1` is 64-fold lower in solubility kinetic: 44.9 µg/mL (≈ 138 µM) for the first, 0.7 µg/mL (≈ 2.35 µM) for the second.

`O=C(O)c1ccc2c(=O)n(-c3ccc(F)cc3)c(=S)[nH]c2c1` and `CN(CC(=O)NCc1ccccn1)S(=O)(=O)c1ccc(F)cc1` cannot be ordered by solubility kinetic: greater than 47.4 µg/mL for the first, greater than 50.6 µg/mL for the second.

First: COc1ccc(F)cc1S(=O)(=O)NCC1CCCO1 (stereo not given)
Second: O=C(NCC1CCCO1)c1ccc(-c2cccc(C(F)(F)F)c2)o1 (stereo not given)
The solubility kinetic of the first is higher: greater than 43.4 µg/mL for the first, 38.4 µg/mL (≈ 113 µM) for the second.

`Cc1cc(=O)[nH]c(-c2ccccc2OC(F)(F)F)n1` and `O=c1cc(NCc2ccccc2)[nH]c(=O)[nH]1` cannot be ordered by solubility kinetic: greater than 40.5 µg/mL for the first, greater than 32.6 µg/mL for the second.

Going from `Fc1ccc(CN2CCC(Cc3ccccc3)CC2)cc1F` to `CCN1CCN(CC(=O)Nc2cc(S(=O)(=O)N(CC)c3ccccc3)ccc2Cl)CC1.Cl`, the solubility kinetic rises from 8 µg/mL (≈ 26.5 µM) to greater than 75.2 µg/mL.

First: Cc1ccc2nc(C)c(C(=O)O)cc2c1
Second: COC(=O)c1c(C)nsc1NC(=O)Oc1ccccc1
The solubility kinetic of the first is higher: greater than 30.2 µg/mL for the first, 2.7 µg/mL (≈ 9.24 µM) for the second.

First: COC(=O)c1ccc(NC(=O)c2ccc3nsnc3c2)cc1
Second: O=C(NCC1CCCO1)c1ccc(NC(=O)c2cccc([N+](=O)[O-])c2)cc1 (stereo not given)
The solubility kinetic of the first is 2.7-fold lower: 1.3 µg/mL (≈ 4.15 µM) for the first, 3.5 µg/mL (≈ 9.48 µM) for the second.

First: O=C(Nc1cccc(C(F)(F)F)c1)c1cc[n+]([O-])cc1
Second: O=C(Cn1c(=O)oc2cccnc21)Nc1ccc(C(F)(F)F)cc1
The solubility kinetic of the first is higher: greater than 42.3 µg/mL for the first, 8.9 µg/mL (≈ 26.4 µM) for the second.

First: CCC1(c2ccc(N)cc2)CCC(=O)NC1=O (stereo not given)
Second: Nc1ccccc1SCc1c(Cl)cccc1Cl
The solubility kinetic of the first is higher: greater than 34.8 µg/mL for the first, less than 0.6 µg/mL for the second.

Compared with `COC(=O)c1sc2nc3c(cc2c1N)CCCC3`, `COC(=O)c1c(N)sc2c1CC(C)(C)OC2` is higher in solubility kinetic: 2 µg/mL (≈ 7.62 µM) for the first, greater than 36.2 µg/mL for the second.

Compared with `Cc1nc2cc(NCc3cccs3)ccc2n1C`, `CN(Cc1cccs1)C(=O)COc1cccc2c1OC(C)(C)C2` is higher in solubility kinetic: 31.9 µg/mL (≈ 124 µM) for the first, greater than 49.7 µg/mL for the second.

`Cc1cc(NC(=O)C(Cl)c2ccccc2)no1` (stereo not given) and `COCCNc1cnn(-c2ccccc2)c(=O)c1Cl` cannot be ordered by solubility kinetic: greater than 37.6 µg/mL for the first, greater than 42 µg/mL for the second.

`O=C(COc1ncnc2ccccc12)NC1CCCC1` and `CC1(C)CC(NC(=O)Cc2ccccc2)CC(C)(C)N1.Cl` cannot be ordered by solubility kinetic: greater than 40.7 µg/mL for the first, greater than 46.6 µg/mL for the second.

Compared with `O=C(OCC(=O)c1ccc[nH]1)C1=COCCO1`, `CCC1CCc2c(sc(NC(=O)c3cnccn3)c2C(N)=O)C1` (stereo not given) is lower in solubility kinetic: greater than 35.6 µg/mL for the first, 1.8 µg/mL (≈ 5.45 µM) for the second.

First: CCn1c(O)c(C#N)c(C)cc1=O
Second: CCCCCN1C(C)=CC(=C(C#N)C#N)C=C1C
The solubility kinetic of the first is higher: greater than 26.7 µg/mL for the first, 3.3 µg/mL (≈ 13.7 µM) for the second.

First: O=C(Nc1ccc(F)c(Cl)c1)Nc1csc2ccccc12
Second: CN[C@H]1CC[C@@H](c2ccc(Cl)c(Cl)c2)c2ccccc21
The solubility kinetic of the first is lower: 1 µg/mL (≈ 3.12 µM) for the first, greater than 45.9 µg/mL for the second.

Going from `O=[N+]([O-])c1ccc2c(c1)Nc1nc3ccccc3nc1N2` to `CC(=O)Nc1ccccc1-c1nc2cc(C#N)c(C#N)cc2[nH]c1=O`, the solubility kinetic rises from 1.4 µg/mL (≈ 5.01 µM) to greater than 49.4 µg/mL.

Going from `O=C1/C(=C\c2ccc(Cl)cc2Cl)N2CCC1CC2` to `CCn1c(CO)nc2c1c(=O)[nH]c(=O)n2Cc1ccccc1`, the solubility kinetic rises from 8.9 µg/mL (≈ 31.5 µM) to greater than 45 µg/mL.

First: Cc1ccnc(N/C=C/C(=O)c2ccc(Br)cc2)c1
Second: COC(=O)[C@H](C)NC(=O)NCCC1=CCCCC1
The solubility kinetic of the first is lower: less than 0.3 µg/mL for the first, greater than 38.1 µg/mL for the second.
